Measurements from patent EP2662079A1 (Ordway Research Institute, Inc., priority 2012, dated 2013).

Tests used:
MDA-MB-231 cells = experiment: RNA microarray of MDA-MB-231 cells; format: cell-based, human
Procedure: Tetrac and nanoparticulate Tetrac. Tetrac was custom-synthesized by Peptido GMBH (Bembach, Germany). The proprietary Tetrac nanoparticle was custom-synthesized by covalently-bonding of the outer ring hydroxyl of Tetrac to PLGA via an intervening linker. […] Cell culture for definition of effects of Tetrac formulations on tumor cell proliferation. MDA-MB-231 cells were purchased from ATCC (Manassas, VA). Cells were maintained until use in DMEM that contained 10% FBS. The incubator conditions were 5% CO2/95% 02 and 37° C. The action of unmodified Tetrac and nanoparticulate on MDA-MB-231 cells was determined in a perfusion bellows cell culture system we have recently described for quantitating pharmaceutical agent pharmacodynamics in vitro. (See Lin et al., J Steroid Biochem Mol Biol 113: 182-188 (2009)). In brief, the cell culture system is a disposable bioreactor capable of high density cell culture for studies of anti-cancer drugs. Bellows-induced alternate flow of culture medium and air through porous matrices where cells are grown provides a relatively low shear, high aeration, foam-free culture environment. Medium level is raised and lowered to submerge and expose matrices to create a dynamic interface between air and media on the cell surface. Anchorage-dependent cells are grown on plastic flakes in the system. The flakes facilitate harvesting of whole cells for analysis. In the present studies, 5 x 10^7 cells were seeded in each perfusion flask and incubated at 37 C overnight. Flakes thereafter were sampled at regular intervals (Figure 44), subjected to trypsinization and the harvested cells counted. When Tetrac or nanoparticulate Tetrac were initially added to the system, flasks contained 20-50 x 10^6 cells. Cell cultures were re-fed with 1% FBS-containing medium. Studies were carried out in duplicate flasks and replicated once. Cell culture for harvesting of RNA. MDA-MB-231 cells were maintained in DMEM that was supplemented with 10% FBS in a 5% CO2/95% 02 air incubator at 37°C. For two days prior to exposure to Tetrac and nanoparticulate Tetrac, cells were maintained in 0.25% FBS that was stripped of estrogen and thyroid hormone. (See Lin et al., Biochemistry 42: 7571-7579 (2003)). RNA microarray and analysis. Microarray analysis experiments were conducted as described previously. (See Glinsky et al., J Clin Invest 115: 1503-1521 (2005); Glinsky et al., J Clin Invest 113: 913-923 (2004); Glinsky et al., Clin Cancer Res 10: 2272-2283 (2004); and Glinsky et al., Mol Carcinog 37: 209-221 (2003)). In brief, the array hybridization and processing, retrieval of data and analysis utilized standard sets of Affymetrix (Santa Clara, CA) equipment, software and protocols in the microarray core facility of Ordway Research Institute. […] Sample purity and integrity were verified with an Agilent BioAnalyzer (Santa Clara, CA). Expression analysis of 54,675 transcripts for each sample was by Affymetrix HG-U133A Plus 2.0 arrays. MAS5.0 software was used for data retrieval and analysis and concordant changes of gene expression in response to unmodified Tetrac and nanoparticulate Tetrac were defined by two-tailed t test at a threshold p value < 0.01.
Expression of ~54,000 transcripts was analyzed in control and drug-treated cultures, using Affymetrix Human Genome U133 plus 2.0 microarrays. Subsequent analysis was focused on genes affected by treatment at p < 0.01. There was 93% concordance between Tetrac and Tetrac NP in terms of genes affected; notable disparities included downregulation of epidermal growth factor receptor (EGFR) by Tetrac NP and no affect of unmodified Tetrac on this gene.

h-MTC cells = experiment: RNA microarray of MTC cells; format: cell-based, human
Source text: Treatment of animals with unmodified or nanoparticulate Tetrac. […] Estimation of tumor response to Tetrac or nanoparticulate Tetrac. […] Statistical analysis for CAM and xenograft studies. […] Statistical significance was defined as P <0.05. RNA microarray analysis.

[1] = test system: SKN-SH, SaOS2, and MCF7 cells; experiment: Proliferation of drug-sensitive and drug-resistant cancer cells (MTT assay); format: cell-based
Source text: Cells were harvested and nuclear fractions prepared as described previously. Nucleoproteins, separated by gel electrophoresis, were immunoblotted with antibody to phosphorylated MAPK (pERK1 and pERK2, 44 and 42 kDa, respectively), followed by a second antibody linked to a luminescence-detection system. A β-action immunoblot of nuclear fractions serves as a control for gel loading in each part of this figure. […] The levels of FGF2 cDNA, shown in the top blot, were corrected for variations in GAPDH cDNA content, shown in the bottom blot, and the corrected levels of FGF2 are illustrated below in the graph (mean ±SE of mean; n = 2 experiments). […] Drug-sensitive and -resistant SKN-SH (Figures 13C-D), SaOS2 (Figures 13A-B), and MCF7 (Figures 13E-F) cells were subjected to treatment with increasing concentrations of Tetrac or Doxirubicin over a period of 4 days. Cell viability was then measured by MTT assay. […] The cells were treated for 24 h with each drug alone or the combination of both, after that, expression of drug resistance molecules was determined by Western blot using specific antibodies. […] The cells were incubated for 24 hours with doxorubicin in the absence or the presence of Tetrac, after that they were washed and then solubilized. […]

[2] = gene expression, listed as unmodified Tetrac

Structure (SMILES): O=C(O)Cc1cc(I)c(Oc2cc(I)c(O)c(I)c2)c(I)c1 [Tetrac, 3,3',5,5'-tetraiodothyroacetic acid]
- expression of epidermal growth factor receptor (EGFR) (MDA-MB-231 cells; 10^-7 M, 24 h): no affect
- Change: CBY1 (MDA-MB-231 cells; gene expression): significantly increased
- Change: CDKN2C (Cyclin-dependent kinase inhibitor) (MDA-MB-231 cells; gene expression): ↑
- Change: Cyclins (Cell cycle regulators) (MDA-MB-231 cells; gene expression): ↓
- Change: THBS1 (MDA-MB-231 cells; gene expression): strongly induced
- Change: BCL2L14 (MDA-MB-231 cells; [2]): not a significant stimulatory action
- Change: CASP2 (MDA-MB-231 cells; [2]): not a significant stimulatory action
- Change: MCL1 (MDA-MB-231 cells; [2]): did not significantly affect
- Change: XIAP (MDA-MB-231 cells; [2]): also acted on XIAP
- expression of VEGFA (h-MTC cells): significantly decreased expression
- expression of apoptosis-associated genes (CASP2, DFFA, FAF1, CASP8AP2) (h-MTC cells): caused expression
- expression of thrombospondin (THBS1) (h-MTC cells): increase
- anti-proliferative activity in vitro against drug-sensitive and drug-resistant cells ([1]; 4 days, MTT (Figure 13)): equivalent
- cellular responses to doxorubicin, etoposide, cisplatin and TSA when combined with Tetrac ([1]; resistant SKN-SH/R, MCF7/R and SaOS2/R cells (Figure 14)): significantly enhanced
